Assay [1] has as its system HT22 cells. The experiment in a line: Protection of HT22 cells from oxidative glutamate toxicity (MTT assay). Type of assay: cell-based, mouse. Particulars: for EC50 / Emax: 5 mM glutamate, MTT assay; for EC50: read-out: EC50 (μM), protection from oxidative-stress induced death; for Emax: HT-22, read-out: Maximal Efficacy, protection from oxidative-stress induced death; for effect of higher levels of BSO on protection: 5 mM glutamate + 1 mM BSO. For orientation: Tetrazolium assays rely on reduction of a dye to a coloured formazan, in cell work by metabolically active cells.

The nature of assay [2]: Trolox Equivalent Activity Concentration (ABTS decolorization assay). Particulars: Trolox as reference. As for the experimental part:
To determine if the protection seen with the different fisetin derivatives correlated with their antioxidant properties, their Trolox Equivalent Activity Concentration (TEAC) values were determined. In this procedure, a compound is compared to Trolox, a water-soluble vitamin E analog, for its ability to reduce the radical cation of ABTS in aqueous solution. As reported previously, fisetin has a TEAC value of ˜3 (Table II). None of the derivatives had TEAC values in this range despite, in some cases, showing better protection against oxidative stress-induced death. Thus, there was no correlation with antioxidant activity as defined by TEAC value and protection in this system.
TEAC values for the flavonoids were determined according to (Re et al. Free Rad. Biol. Med., 26:1231-7, 1999) but modified for a plate reader. Briefly, 250 μl of 2,2′-azinobis(3-ethylbenzothiazoline 6-sulfonate)(ABTS) treated overnight with potassium persulfate and diluted to an OD of ˜0.7 at 734 nm was added to 2.5 μl of a flavonoid solution in ethanol. The change in absorbance due to the reduction of the ABTS radical cation was measured at 734 nm for 4 minutes. To calculate the TEAC, the gradient of the plot of the percentage inhibition of absorbance vs. concentration for the flavonoid in question is divided by the gradient of the plot for Trolox.

For assay [3], the system named is Nrf2 and HO-1. In words: Nrf2 and HO-1 induction in HT22 cells (immunoblotting). Type of assay: cell-based, mouse. Particulars: for increasing the levels of Nrf2 and inducing HO-1 synthesis: HT22 cells, 10-25 μM, 4 hours (Nrf2), 24 hours (HO-1). The protocol: Since the ability to activate the ARE could be important for some of the beneficial effects of flavonoids such as fisetin, it was determined which, if any, of the fisetin derivatives could activate the ARE and induce the synthesis of downstream proteins such as HO-1. HT22 cells were untreated (control) or treated with 10 μM fisetin, 25 μM 3,3′DHF, 25 μM 3,4′-DHF, 10 μM 3′,4′-DHF, 10 μM 3,3′,4′-THF, 25 μM 3,7,3′-THF, 25 μM 3,7,4′-THF or 10 μM 7,3′,4′-THF for 4 hours. Nuclei were prepared and equal amounts of protein were analyzed by SDS-PAGE and immunoblotting with anti-Nrf-2 antibodies.
ERK activation is implicated in the induction of Nrf2 by certain stimuli in some cell types. To determine if ERK activation plays a role in the induction of Nrf2 and HO-1 by fisetin and its derivatives, cells were pretreated with PD98059 prior to the addition of the flavonoids to the cells. HT22 cells then were untreated (control) or treated for 24 hours with 10 μM fisetin, 25 μM 3,3′-DHF, 25 μM 3,4′-DHF, 10 μM 3′,4′-DHF, 10 μM 3,3′,4′-THF, 25 μM 3,7,3′-THF, 25 μM 3,7,4′-THF or 10 μM 7,3′,4′-THF. Cell lysates were prepared and equal amounts of cellular protein were analyzed by SDS-PAGE and immunoblotting with anti-HO-1 antibodies. Immunoblotting with anti-actin was used as a loading control.
For immunoblotting of HO-1, untreated and flavonoid-treated HT22 cells from the same density cultures as used for the cell death assays were washed twice in cold phosphate-buffered saline (PBS) then scraped into lysis buffer containing 50 mM HEPES, pH 7.4, 150 mM NaCl, 50 mM NaF, 1.5 mM MgC2, 1 mM EGTA, 10% glycerol, 1% Triton X-100, 10 mM sodium pyrophosphate, 1 mM Na3VO4, 1 mM phenylmethylsulfonyl fluoride (PMSF), 15 μg/ml aprotinin, 1 μg/ml pepstatin, and 5 μg/ml leupeptin. Lysates were incubated at 4° C. for 30 minutes, and then cleared by centrifugation at 14,000 rpm for 10 minutes. For immunoblotting of Nr12, nuclear extracts were prepared as described (Schreiber et al., Nuc. Acids Res., 17:6419, 1989) from untreated and flavonoid-treated cells. […] Protein concentrations were determined using the BCA protein assay (Pierce). Equal amounts of protein were solubilized in 2.5×SDS sample buffer, separated on 10% SDS polyacrylamide gels and transferred to nitrocellulose. The primary antibodies used were: anti-Nrf2 (#SC13032; 1/1000) from Santa Cruz Biotechnology (Santa Cruz, Calif.) and anti-HO-1 (#SPA-896; 1/5000) from Stressgen (Victoria, BC Canada).
In general terms: A western blot detects proteins with antibodies after separation by electrophoresis.

Where [4] appears, read: Mus musculus, HT-22, 24 h, HT22 cells, 24 hours.
The mark [5] stands for this setting: Mus musculus, HT22 cells, 24 hours.

Entries after “also recorded” stand apart in the source; their conditions may differ. Where two headings read alike, the source gives them in different places.

In general, EC50 refers to the concentration giving half of the maximal effect. On to `O=c1c(O)c(-c2ccc(O)c(O)c2)oc2ccccc12` [3,3′,4′-THF, 3,3′,4′-trihydroxyflavone], for which the “effect of low levels of BSO on protection” value in assay [1] (5 mM glutamate + 50 μM BSO, 24 hours, MTT) is listed as “significantly reduced protection”. Also, the EC50 in assay [1] (HT22 cells, 24 hours) turned out to be 0.75 µM; in assay [1] (setting [4]), 1 µM. Moreover, the “protection from oxidative stress-induced death” value in assay [1] (HT22 cells, glutamate) was “equal to or more effective than fisetin”; in assay [1] (at 2.5 μM), over 85%. Further, the Emax in assay [1] (setting [5]) was over 90%. The TEAC in assay [2] came out at 2.07 ± 0.06. Moreover, the “increasing the levels of Nrf2 and inducing HO-1 synthesis” value (from here on “increasing the levels”) in assay [3] is “fairly effective”.

`O=c1cc(-c2ccc(O)c(O)c2)oc2ccccc12` [3′,4′-DHF, 3′,4′-dihydroxyflavone]: the “effect of higher levels of BSO on protection” value in assay [1] (24 hours, MTT) is reported as “reduced protection”. For the same compound, in assay [1] (HT22 cells, glutamate), the “protection from oxidative stress-induced death” value was “more effective than fisetin; also recorded: equal to or more effective than fisetin”. Further, the EC50 in assay [1] (setting [4]) amounted to 0.9 µM. In addition, the Emax in assay [1] (setting [5]) was over 90%. In assay [2], the TEAC turned out to be 1.24 ± 0.08. In assay [3], the “increasing the levels” value is on record as “weakly active”.

Turning to `O=c1c(O)c(-c2ccc(O)c(O)c2)oc2cc(O)ccc12` [fisetin, 3,3′,4′,7-tetrahydroxyflavone], in assay [1] (24 hours, MTT), the “effect of higher levels of BSO on protection” value is given as “reduced protection”. The EC50 in assay [1] (setting [4]) was found to be 5 µM. Further, the Emax in assay [1] (setting [5]) was over 90%. Moreover, the TEAC in assay [2] is reported as about 3; in assay [2] (listed as 3,7,3,′4′-THF (fisetin)), 3.11 ± 0.20. The “increasing the levels” value in assay [3] is on record as “best of the group”. Moreover, in assay [3] (PD98059 pretreatment), the “effect of inhibition of ERK activation (PD98059) on Nrf2 and HO-1 induction” value is on record as “no effect”.

The values above are taken from US7897637B2, “Methods of using flavonoids to enhance memory” (The Salk Institute for Biological Studies, priority 2006, dated 2011).
